Literature values, collected in EP3808777A1, “STABLE LIQUID ANTIBODY FORMULATIONS” (Glenmark Specialty S.A., priority 2019, dated 2021).

Row | effective buffering range (pH range) | pKa values | SMILES
1 | 5.5-7.4 |  | N[C@@H](Cc1c[nH]cn1)C(=O)O [L-hisitidine]
2 |  | 1.82 | N=C(N)NCCC[C@H](N)C(=O)O [Arginine]
3 |  | 9.06 | NCCCC[C@H](N)C(=O)O [Lysine]
